Experimental data published in the NIST ThermoML archive (doi:10.1016/j.fluid.2016.02.030).

Test: osmotic coefficient (dimensionless); mn = molality of the nth substance listed, in mol/kg
Conditions: 308.15 K, Liquid, omometer

OC[C@@H](O)[C@@H](O[C@H]1O[C@H](CO)[C@@H](O)[C@H](O)[C@H]1O)[C@H](O)[C@@H](O)CO [4-O-α-D-glucopyranosyl-D-glucitol] + O
Conditions | osmotic coefficient
m1 = 0.0292 | 0.9903
m1 = 0.1187 | 0.9976
m1 = 0.219 | 1.012
m1 = 0.3226 | 1.019
m1 = 0.4282 | 1.028
m1 = 0.5127 | 1.031
m1 = 0.5925 | 1.032
m1 = 0.774 | 1.049
m1 = 0.9158 | 1.06
m1 = 1.054 | 1.067
m1 = 1.261 | 1.081
m1 = 1.918 | 1.151
m1 = 2.645 | 1.217
m1 = 3.591 | 1.272

O=C[C@H](O)[C@@H](O)[C@H](O[C@@H]1O[C@H](CO)[C@H](O)[C@H](O)[C@H]1O)[C@H](O)CO [4-O-β-D-galactopyranosyl-D-glucose] + O
Conditions | osmotic coefficient
m1 = 0.014 | 0.9946
m1 = 0.0578 | 1.011
m1 = 0.1025 | 1.022
m1 = 0.1286 | 1.03
m1 = 0.1795 | 1.046
m1 = 0.2313 | 1.058
m1 = 0.2909 | 1.065
m1 = 0.3217 | 1.067

O=C[C@H](O)[C@@H](O)[C@@H](O)[C@H](O)CO [(+)-galactose] + O
Conditions | osmotic coefficient
m1 = 0.0558 | 0.9999
m1 = 0.1149 | 1.001
m1 = 0.1727 | 1.004
m1 = 0.2306 | 1.003
m1 = 0.2878 | 1.004
m1 = 0.3548 | 1.006
m1 = 0.4098 | 1.006
m1 = 0.4829 | 1.007
m1 = 0.5526 | 1.008
m1 = 0.6174 | 1.008
m1 = 0.6818 | 1.009
m1 = 0.7847 | 1.01
m1 = 0.8958 | 1.011
m1 = 1.009 | 1.012
m1 = 1.138 | 1.013
m1 = 1.308 | 1.016
m1 = 1.85 | 1.025
m1 = 2.61 | 1.045

O=C(CO)[C@@H](O)[C@H](O)[C@H](O)CO [D-fructose] + O
Conditions | osmotic coefficient
m1 = 0.0559 | 0.9986
m1 = 0.1125 | 0.9958
m1 = 0.1714 | 0.9944
m1 = 0.2296 | 0.9949
m1 = 0.2923 | 0.9947
m1 = 0.3466 | 0.9945
m1 = 0.4185 | 0.9946
m1 = 0.4792 | 0.9949
m1 = 0.5468 | 0.9947
m1 = 0.614 | 0.9951
m1 = 0.6925 | 0.9951
m1 = 0.7872 | 0.9955
m1 = 0.9018 | 0.995
m1 = 1.022 | 0.9947
m1 = 1.139 | 0.9949
m1 = 1.266 | 0.9949
m1 = 1.741 | 0.9972
m1 = 2.401 | 1.006
m1 = 2.95 | 1.014
m1 = 3.625 | 1.027
m1 = 5.424 | 1.069

O=C[C@H](O)[C@@H](O)[C@H](O)[C@H](O)CO [D-glucose] + O
Conditions | osmotic coefficient
m1 = 0.0557 | 1.002
m1 = 0.1126 | 1.005
m1 = 0.1685 | 1.004
m1 = 0.2236 | 1.004
m1 = 0.2913 | 1.004
m1 = 0.3539 | 1.005
m1 = 0.4081 | 1.006
m1 = 0.4775 | 1.006
m1 = 0.5382 | 1.006
m1 = 0.5708 | 1.008
m1 = 0.6209 | 1.008
m1 = 0.6815 | 1.008
m1 = 0.7347 | 1.009
m1 = 0.7963 | 1.009
m1 = 0.9085 | 1.01
m1 = 1.019 | 1.012
m1 = 1.109 | 1.014
m1 = 1.215 | 1.015
m1 = 1.323 | 1.017
m1 = 1.569 | 1.022
m1 = 1.841 | 1.03
m1 = 2.386 | 1.044
m1 = 2.945 | 1.061
m1 = 3.626 | 1.078
m1 = 4.847 | 1.11

O=C[C@@H](O)[C@@H](O)[C@H](O)[C@H](O)CO [D-mannose] + O
Conditions | osmotic coefficient
m1 = 0.1128 | 0.9933
m1 = 0.2298 | 0.989
m1 = 0.3533 | 0.984
m1 = 0.4798 | 0.9828
m1 = 0.6097 | 0.9824
m1 = 0.7659 | 0.9832
m1 = 0.9375 | 0.9836
m1 = 1.117 | 0.9842
m1 = 1.304 | 0.9852
m1 = 1.829 | 0.9903
m1 = 2.544 | 0.9978
m1 = 3.659 | 1.017

OC[C@H]1O[C@H](OC[C@H]2O[C@H](O[C@]3(CO)O[C@H](CO)[C@@H](O)[C@@H]3O)[C@H](O)[C@@H](O)[C@@H]2O)[C@H](O)[C@@H](O)[C@H]1O [D-raffinose] + O
Conditions | osmotic coefficient
m1 = 0.0343 | 1.002
m1 = 0.1059 | 1.025
m1 = 0.1837 | 1.04
m1 = 0.2667 | 1.062
m1 = 0.3581 | 1.083
m1 = 0.4515 | 1.117
m1 = 0.4902 | 1.134
m1 = 0.6205 | 1.168

O=C[C@H](O)[C@H](O)[C@H](O)CO [D-ribose] + O
Conditions | osmotic coefficient
m1 = 0.0338 | 0.9992
m1 = 0.0672 | 0.988
m1 = 0.1353 | 0.9826
m1 = 0.2041 | 0.9786
m1 = 0.2789 | 0.9769
m1 = 0.3505 | 0.9753
m1 = 0.4242 | 0.9745
m1 = 0.499 | 0.9743
m1 = 0.5801 | 0.9736
m1 = 0.6538 | 0.9734
m1 = 0.7165 | 0.973
m1 = 0.7426 | 0.9732
m1 = 0.8289 | 0.973
m1 = 0.9054 | 0.9732
m1 = 1.038 | 0.9735
m1 = 1.183 | 0.9735
m1 = 1.453 | 0.9745
m1 = 1.988 | 0.9774
m1 = 2.594 | 0.9857
m1 = 3.266 | 0.9944

OC[C@@H](O)[C@@H](O)[C@H](O)[C@@H](O)CO [D-sorbitol] + O
Conditions | osmotic coefficient
m1 = 0.0278 | 0.9979
m1 = 0.0558 | 1.001
m1 = 0.111 | 0.9992
m1 = 0.1676 | 1.003
m1 = 0.2296 | 1.002
m1 = 0.2892 | 1.004
m1 = 0.3523 | 1.003
m1 = 0.4124 | 1.004
m1 = 0.4781 | 1.003
m1 = 0.5436 | 1.003
m1 = 0.6109 | 1.003
m1 = 0.6764 | 1.003
m1 = 0.7778 | 1.003
m1 = 0.8812 | 1.004
m1 = 0.9996 | 1.004
m1 = 1.112 | 1.006
m1 = 1.284 | 1.008
m1 = 1.723 | 1.013
m1 = 2.342 | 1.027
m1 = 2.956 | 1.041
m1 = 3.645 | 1.057

OC[C@H]1O[C@@](CO)(O[C@H]2O[C@H](CO)[C@@H](O)[C@H](O)[C@H]2O)[C@@H](O)[C@@H]1O [D-sucrose] + O
Conditions | osmotic coefficient
m1 = 0.0296 | 0.9997
m1 = 0.0581 | 1.001
m1 = 0.0904 | 1.008
m1 = 0.1209 | 1.013
m1 = 0.1534 | 1.017
m1 = 0.1988 | 1.019
m1 = 0.2535 | 1.025
m1 = 0.3157 | 1.028
m1 = 0.3938 | 1.032
m1 = 0.477 | 1.035
m1 = 0.5567 | 1.039
m1 = 0.5822 | 1.04
m1 = 0.648 | 1.042
m1 = 0.7265 | 1.047
m1 = 0.8492 | 1.053
m1 = 0.971 | 1.058
m1 = 1.087 | 1.065
m1 = 1.186 | 1.067
m1 = 1.275 | 1.074
m1 = 1.996 | 1.149
m1 = 2.679 | 1.202
m1 = 3.412 | 1.248
m1 = 3.927 | 1.276

O=C[C@H](O)[C@@H](O)[C@H](O)CO [D-xylose] + O
Conditions | osmotic coefficient
m1 = 5.333 | 1.007
m1 = 5.362 | 1.002
m1 = 5.4 | 0.9966
m1 = 5.435 | 0.9919
m1 = 5.468 | 0.9881
m1 = 5.502 | 0.987
m1 = 5.516 | 0.9868
m1 = 5.53 | 0.9859
m1 = 5.542 | 0.9858
m1 = 5.551 | 0.9857
m1 = 5.559 | 0.9852
m1 = 5.566 | 0.9853
m1 = 5.574 | 0.985
m1 = 5.582 | 0.9853
m1 = 5.59 | 0.9852
m1 = 5.598 | 0.9866
m1 = 5.604 | 0.9869
m1 = 5.611 | 0.9874
m1 = 5.619 | 0.9894
m1 = 5.625 | 0.997

O=C[C@H](O)[C@@H](O)[C@@H](O)CO [L-arabinose] + O
Conditions | osmotic coefficient
m1 = 0.0332 | 0.9993
m1 = 0.0672 | 0.9973
m1 = 0.1346 | 0.9965
m1 = 0.2071 | 0.995
m1 = 0.2766 | 0.9956
m1 = 0.3435 | 0.9951
m1 = 0.4151 | 0.9944
m1 = 0.4952 | 0.9947
m1 = 0.5785 | 0.9949
m1 = 0.6498 | 0.9944
m1 = 0.8204 | 0.9948
m1 = 0.9055 | 0.9945
m1 = 1.041 | 0.9945
m1 = 1.177 | 0.9944
m1 = 1.313 | 0.9942
m1 = 1.659 | 0.995
m1 = 2.402 | 1.002
m1 = 3.272 | 1.016

OC[C@@H](O)[C@H](O)[C@@H](O)CO [xylitol] + O
Conditions | osmotic coefficient
m1 = 0.0663 | 1.002
m1 = 0.1332 | 1.002
m1 = 0.2029 | 1.002
m1 = 0.2718 | 1.002
m1 = 0.3466 | 1.003
m1 = 0.4199 | 1.004
m1 = 0.495 | 1.005
m1 = 0.5643 | 1.005
m1 = 0.6343 | 1.005
m1 = 0.7296 | 1.006
m1 = 0.792 | 1.007
m1 = 0.8908 | 1.008
m1 = 0.9999 | 1.011
m1 = 1.143 | 1.012
m1 = 1.297 | 1.015
m1 = 1.474 | 1.017
m1 = 2.027 | 1.026
m1 = 2.646 | 1.036
m1 = 3.289 | 1.042
m1 = 4.413 | 1.048
